Common to all, as to test: X-ray crystal structure of complex, […] A
What all share (type): binding

For experiment [1], the target named is tmMBP3 (Thermotoga maritima, UniProt G4FGN8). To be noted: co-crystal, 0.4 M sodium thiocyanate; substrate site S1-S2.
Experiment [2] addresses tmMBP1 (Thermotoga maritima, UniProt Q9X0T1). The note with it: co-crystal, 0.1 M sodium citrate; substrate site S1-S4.
Experiment [3] addresses tmMBP2 (Thermotoga maritima, UniProt Q9S5Y1). The note with it: co-crystal, bis-tris pH 5.5; substrate site S1-S4.

As for `OC[C@H]1O[C@H](O[C@H]2[C@H](O)[C@@H](O)C(O)O[C@@H]2CO)[C@H](O)[C@@H](O)[C@@H]1O` (stereo partly drawn) [maltose], the “X-ray crystal structure of complex, 2.15 A; SAXS” value in experiment [1] is on record as “tmMBP3-maltose complex (6DTQ)”. Consider `OC[C@H]1O[C@H](O[C@H]2[C@H](O)[C@@H](O)[C@@H](O[C@H]3[C@H](O)[C@@H](O)[C@@H](O[C@H]4[C@H](O)[C@@H](O)C(O)O[C@@H]4CO)O[C@@H]3CO)O[C@@H]2CO)[C@H](O)[C@@H](O)[C@@H]1O` (stereo partly drawn) [maltotetraose], for which the “X-ray crystal structure of complex, 1.50 A; SAXS” value is “tmMBP1-maltotetraose complex (6DTU)” in experiment [2] and “tmMBP2-maltotetraose complex (6DTS)” in experiment [3].

The record behind these values is paper PMC6189639 (Biochemistry, 2018).
